Measurements reported in publication PMC7445743 (Journal of Medicinal Chemistry, 2020).
Counter-ions that a name gives are not always drawn.

Experiments:
PAK4 = PAK4 (Homo sapiens, UniProt O96013); settings: supplement CSV
DCLK1 = target: T1, DCLK1 (Homo sapiens, UniProt O15075); settings: supplement CSV
T1 sequence (O15075 1-740): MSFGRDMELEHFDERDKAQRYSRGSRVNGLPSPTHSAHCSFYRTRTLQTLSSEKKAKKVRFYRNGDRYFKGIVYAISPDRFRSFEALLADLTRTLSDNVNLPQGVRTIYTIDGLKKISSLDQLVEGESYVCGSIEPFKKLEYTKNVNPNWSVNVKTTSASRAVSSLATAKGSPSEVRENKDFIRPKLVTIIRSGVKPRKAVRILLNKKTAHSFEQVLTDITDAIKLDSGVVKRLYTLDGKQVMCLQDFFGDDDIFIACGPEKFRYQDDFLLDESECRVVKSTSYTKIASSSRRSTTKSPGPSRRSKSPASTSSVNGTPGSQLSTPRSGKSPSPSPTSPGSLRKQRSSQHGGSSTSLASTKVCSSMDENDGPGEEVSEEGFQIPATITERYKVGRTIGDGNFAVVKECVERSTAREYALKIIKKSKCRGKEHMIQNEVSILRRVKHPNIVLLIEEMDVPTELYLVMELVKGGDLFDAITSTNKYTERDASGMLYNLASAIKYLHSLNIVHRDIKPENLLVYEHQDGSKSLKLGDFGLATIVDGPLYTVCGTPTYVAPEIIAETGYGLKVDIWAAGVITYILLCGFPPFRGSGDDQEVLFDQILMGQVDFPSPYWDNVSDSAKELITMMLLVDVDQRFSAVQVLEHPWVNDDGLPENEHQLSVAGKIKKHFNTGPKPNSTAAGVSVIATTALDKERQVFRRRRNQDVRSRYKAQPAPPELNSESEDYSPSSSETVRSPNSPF

CAMK2A = CAMK2A (Homo sapiens, UniProt Q9UQM7); settings: supplement CSV
Sequence of CAMK2A (Q9UQM7 whole entry): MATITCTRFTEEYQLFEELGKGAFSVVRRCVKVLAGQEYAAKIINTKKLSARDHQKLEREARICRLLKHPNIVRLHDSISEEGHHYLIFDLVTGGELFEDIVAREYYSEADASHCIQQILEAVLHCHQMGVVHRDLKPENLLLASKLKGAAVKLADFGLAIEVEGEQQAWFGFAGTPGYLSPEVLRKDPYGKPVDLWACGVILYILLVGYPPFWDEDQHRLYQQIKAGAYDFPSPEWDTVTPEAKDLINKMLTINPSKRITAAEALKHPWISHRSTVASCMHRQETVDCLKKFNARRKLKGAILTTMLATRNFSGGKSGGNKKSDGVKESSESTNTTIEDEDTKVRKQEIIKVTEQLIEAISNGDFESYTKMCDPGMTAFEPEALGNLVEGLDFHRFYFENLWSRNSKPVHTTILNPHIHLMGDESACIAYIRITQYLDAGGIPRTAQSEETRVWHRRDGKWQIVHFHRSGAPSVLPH

DAPK3 = DAPK3 (Homo sapiens, UniProt O43293); settings: supplement CSV
Sequence of DAPK3 (O43293 whole entry): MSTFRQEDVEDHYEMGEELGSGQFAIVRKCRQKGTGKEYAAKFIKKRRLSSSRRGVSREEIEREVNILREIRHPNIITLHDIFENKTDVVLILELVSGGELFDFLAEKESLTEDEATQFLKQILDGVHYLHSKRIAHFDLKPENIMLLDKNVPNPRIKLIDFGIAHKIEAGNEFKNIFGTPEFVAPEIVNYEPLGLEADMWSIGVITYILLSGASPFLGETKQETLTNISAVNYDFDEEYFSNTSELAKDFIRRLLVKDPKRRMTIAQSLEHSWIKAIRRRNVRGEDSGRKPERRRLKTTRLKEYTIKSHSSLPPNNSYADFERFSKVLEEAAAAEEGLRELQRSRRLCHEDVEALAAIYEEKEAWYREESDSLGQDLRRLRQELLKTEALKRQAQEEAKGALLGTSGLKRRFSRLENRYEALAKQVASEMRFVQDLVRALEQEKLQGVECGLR

CaMK4 = target: T2, CaMK4 (Homo sapiens, UniProt Q16566); settings: supplement CSV
T2 sequence (Q16566 1-473): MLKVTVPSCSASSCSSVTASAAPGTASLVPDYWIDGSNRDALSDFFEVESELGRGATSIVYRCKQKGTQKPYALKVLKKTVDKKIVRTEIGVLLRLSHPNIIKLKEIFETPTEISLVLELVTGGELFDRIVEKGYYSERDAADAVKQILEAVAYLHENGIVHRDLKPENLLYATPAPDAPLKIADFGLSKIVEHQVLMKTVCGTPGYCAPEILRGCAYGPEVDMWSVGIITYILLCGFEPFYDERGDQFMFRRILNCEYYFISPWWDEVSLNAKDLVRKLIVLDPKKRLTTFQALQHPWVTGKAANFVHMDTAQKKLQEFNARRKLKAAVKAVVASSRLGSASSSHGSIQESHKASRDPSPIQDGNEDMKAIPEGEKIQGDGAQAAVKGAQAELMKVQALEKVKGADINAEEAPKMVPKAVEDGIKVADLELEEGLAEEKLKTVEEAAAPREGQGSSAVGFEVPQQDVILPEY

GSK3β = GSK3β (Homo sapiens, UniProt P49841); settings: supplement CSV
Sequence of GSK3β (P49841 whole entry, species assumed): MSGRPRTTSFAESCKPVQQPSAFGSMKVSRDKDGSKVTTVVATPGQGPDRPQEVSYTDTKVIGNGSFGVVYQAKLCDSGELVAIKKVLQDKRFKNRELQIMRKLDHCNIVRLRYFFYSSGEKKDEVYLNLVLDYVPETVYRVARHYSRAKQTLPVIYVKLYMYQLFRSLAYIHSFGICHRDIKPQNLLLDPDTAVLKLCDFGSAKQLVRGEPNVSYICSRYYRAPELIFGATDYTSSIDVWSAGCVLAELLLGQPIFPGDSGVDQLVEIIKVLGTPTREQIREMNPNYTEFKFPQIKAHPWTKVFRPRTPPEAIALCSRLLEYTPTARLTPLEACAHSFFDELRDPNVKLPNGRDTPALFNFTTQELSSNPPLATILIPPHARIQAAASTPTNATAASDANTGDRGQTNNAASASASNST

CAMK1G = CAMK1G (Homo sapiens, UniProt Q96NX5); settings: supplement CSV
Sequence of CAMK1G (Q96NX5 whole entry): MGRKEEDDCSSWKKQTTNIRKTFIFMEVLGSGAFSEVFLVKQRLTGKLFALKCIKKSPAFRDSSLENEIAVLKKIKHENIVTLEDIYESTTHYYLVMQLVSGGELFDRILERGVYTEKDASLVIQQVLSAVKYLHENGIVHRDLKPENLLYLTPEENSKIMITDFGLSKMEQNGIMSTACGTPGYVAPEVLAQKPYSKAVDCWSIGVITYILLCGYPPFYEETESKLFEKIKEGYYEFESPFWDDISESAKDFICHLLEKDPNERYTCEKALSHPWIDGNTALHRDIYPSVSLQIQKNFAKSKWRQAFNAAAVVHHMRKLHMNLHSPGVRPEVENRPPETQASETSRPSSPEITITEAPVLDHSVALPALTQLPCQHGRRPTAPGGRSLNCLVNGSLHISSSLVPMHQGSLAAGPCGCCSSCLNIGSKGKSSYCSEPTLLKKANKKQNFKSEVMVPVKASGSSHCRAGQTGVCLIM

SYK = SYK (Homo sapiens, UniProt P43405); settings: supplement CSV
ABL = ABL (Homo sapiens, UniProt P00519); settings: supplement CSV
Sequence of ABL (P00519 whole entry, species assumed): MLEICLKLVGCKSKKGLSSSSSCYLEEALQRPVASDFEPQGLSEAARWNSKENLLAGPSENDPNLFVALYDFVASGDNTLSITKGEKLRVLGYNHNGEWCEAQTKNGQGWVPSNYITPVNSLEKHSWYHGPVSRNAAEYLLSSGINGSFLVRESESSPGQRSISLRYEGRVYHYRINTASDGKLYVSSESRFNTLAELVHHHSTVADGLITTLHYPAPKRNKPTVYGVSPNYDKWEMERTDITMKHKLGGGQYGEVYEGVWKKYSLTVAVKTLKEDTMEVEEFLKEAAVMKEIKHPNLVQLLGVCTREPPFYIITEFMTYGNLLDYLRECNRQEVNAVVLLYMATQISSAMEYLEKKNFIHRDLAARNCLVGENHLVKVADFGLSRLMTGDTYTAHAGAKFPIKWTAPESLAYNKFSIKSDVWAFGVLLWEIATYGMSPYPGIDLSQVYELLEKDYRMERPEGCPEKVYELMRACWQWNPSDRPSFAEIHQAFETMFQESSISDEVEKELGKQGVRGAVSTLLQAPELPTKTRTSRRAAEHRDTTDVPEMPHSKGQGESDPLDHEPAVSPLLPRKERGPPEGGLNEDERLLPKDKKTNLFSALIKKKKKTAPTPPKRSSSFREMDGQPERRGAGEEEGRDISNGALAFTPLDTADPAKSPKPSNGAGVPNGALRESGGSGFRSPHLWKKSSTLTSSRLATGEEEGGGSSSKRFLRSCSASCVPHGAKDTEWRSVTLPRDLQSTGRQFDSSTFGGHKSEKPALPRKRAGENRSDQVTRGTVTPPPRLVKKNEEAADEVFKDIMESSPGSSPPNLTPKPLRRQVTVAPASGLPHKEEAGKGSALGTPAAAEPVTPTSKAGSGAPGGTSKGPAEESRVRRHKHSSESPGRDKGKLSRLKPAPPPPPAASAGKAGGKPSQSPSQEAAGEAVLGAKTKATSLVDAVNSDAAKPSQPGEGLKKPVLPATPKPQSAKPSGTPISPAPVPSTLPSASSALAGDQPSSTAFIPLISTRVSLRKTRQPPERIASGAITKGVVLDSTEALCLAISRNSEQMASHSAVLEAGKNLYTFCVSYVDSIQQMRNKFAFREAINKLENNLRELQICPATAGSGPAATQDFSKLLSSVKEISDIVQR

PIM1 = PIM1 (Homo sapiens, UniProt P11309); settings: supplement CSV
Sequence of PIM1 (P11309 whole entry): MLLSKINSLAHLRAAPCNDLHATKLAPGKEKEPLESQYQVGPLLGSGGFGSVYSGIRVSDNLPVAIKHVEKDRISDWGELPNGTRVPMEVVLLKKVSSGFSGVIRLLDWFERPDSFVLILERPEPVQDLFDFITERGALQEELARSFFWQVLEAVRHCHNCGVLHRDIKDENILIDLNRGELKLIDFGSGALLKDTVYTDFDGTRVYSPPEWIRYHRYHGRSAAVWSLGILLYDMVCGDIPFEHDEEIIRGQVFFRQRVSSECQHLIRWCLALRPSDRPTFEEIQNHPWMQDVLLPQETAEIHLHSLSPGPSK

DAPK1 = DAPK1 (Homo sapiens, UniProt P53355); settings: supplement CSV
CK2a = CK2a (Homo sapiens, UniProt P68400); settings: supplement CSV
Sequence of CK2a (P68400 whole entry): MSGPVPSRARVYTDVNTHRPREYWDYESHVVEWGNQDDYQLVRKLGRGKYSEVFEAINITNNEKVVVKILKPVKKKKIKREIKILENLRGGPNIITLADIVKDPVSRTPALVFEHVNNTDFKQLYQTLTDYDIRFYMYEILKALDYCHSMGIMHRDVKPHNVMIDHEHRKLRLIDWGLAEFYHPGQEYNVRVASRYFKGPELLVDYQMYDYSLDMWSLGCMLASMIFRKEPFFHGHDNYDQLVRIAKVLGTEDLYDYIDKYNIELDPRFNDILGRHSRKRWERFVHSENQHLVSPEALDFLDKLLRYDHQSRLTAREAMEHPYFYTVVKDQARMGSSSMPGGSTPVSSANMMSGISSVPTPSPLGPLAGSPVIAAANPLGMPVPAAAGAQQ

PKNB(M.tuberculosis) = target: T3, PKNB(M.tuberculosis) (Mycobacterium tuberculosis, UniProt P9WI81); assay: KINOMEscan; format: binding
T3 construct: purchased DiscoverX (Eurofins) KINOMEscan scanMAX; first lines in-house DSF / ADP-Glo
T3 sequence (P9WI81 whole entry): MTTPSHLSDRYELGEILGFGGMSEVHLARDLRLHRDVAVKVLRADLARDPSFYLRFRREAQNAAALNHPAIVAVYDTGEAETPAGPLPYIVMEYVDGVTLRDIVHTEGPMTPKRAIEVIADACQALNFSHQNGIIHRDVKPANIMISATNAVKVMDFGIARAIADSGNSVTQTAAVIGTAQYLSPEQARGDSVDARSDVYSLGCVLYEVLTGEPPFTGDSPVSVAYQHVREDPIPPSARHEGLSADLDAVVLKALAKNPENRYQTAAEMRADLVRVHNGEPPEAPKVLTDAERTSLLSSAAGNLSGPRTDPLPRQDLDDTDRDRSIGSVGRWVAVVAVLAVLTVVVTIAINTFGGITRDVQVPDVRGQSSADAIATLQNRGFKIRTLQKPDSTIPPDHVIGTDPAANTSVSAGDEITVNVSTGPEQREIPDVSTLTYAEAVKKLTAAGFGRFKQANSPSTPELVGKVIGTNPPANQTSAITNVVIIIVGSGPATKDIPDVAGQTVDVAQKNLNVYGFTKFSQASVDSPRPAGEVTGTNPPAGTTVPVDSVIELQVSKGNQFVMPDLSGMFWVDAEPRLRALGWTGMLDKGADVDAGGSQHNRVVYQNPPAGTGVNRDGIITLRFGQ

[1] = system: kinase panel (468 Assays Tested); assay: Pan-kinome selectivity, competitive binding assay (KINOMEscan); settings: for S-Score(35): 1 μM

Sequence of PAK4 (O96013 whole entry): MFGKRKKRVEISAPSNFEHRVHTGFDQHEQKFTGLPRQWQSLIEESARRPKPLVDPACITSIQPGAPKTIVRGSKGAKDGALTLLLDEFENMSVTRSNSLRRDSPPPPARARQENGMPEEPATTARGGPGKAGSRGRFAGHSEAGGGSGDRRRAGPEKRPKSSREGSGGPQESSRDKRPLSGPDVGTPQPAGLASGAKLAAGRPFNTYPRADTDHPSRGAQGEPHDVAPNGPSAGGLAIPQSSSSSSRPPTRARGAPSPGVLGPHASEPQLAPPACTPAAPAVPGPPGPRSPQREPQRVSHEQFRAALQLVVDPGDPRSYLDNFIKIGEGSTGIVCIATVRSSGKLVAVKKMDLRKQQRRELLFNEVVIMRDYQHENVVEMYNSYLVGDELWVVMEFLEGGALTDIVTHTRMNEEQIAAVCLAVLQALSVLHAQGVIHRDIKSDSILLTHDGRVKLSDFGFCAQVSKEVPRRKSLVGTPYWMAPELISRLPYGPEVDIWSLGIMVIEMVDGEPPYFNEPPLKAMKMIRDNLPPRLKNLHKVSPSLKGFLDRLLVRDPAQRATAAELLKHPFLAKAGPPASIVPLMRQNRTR

SMILES | PAK4 Tm (PAK4) | DCAMKL1 Tm (DCLK1) | CAMK2A Tm (CAMK2A) | DAPK3 Tm (DAPK3) | CAMK4 Tm (CaMK4) | GSK3B Tm (GSK3β) | CAMK1G Tm (CAMK1G) | SYK Tm (SYK) | ABL1 Tm (ABL) | PIM1 Tm (PIM1) | DAPK1 Tm (DAPK1) | CK2alpha Tm (CK2a) | remaining binding at 1 µM (PKNB(M.tuberculosis)) [%] | S-Score(35) [1] | wild-type kinases inhibited by >90% ([1]; competitive binding assay at 1 μM)
NC(=O)c1cnc(N2CCC[C@H](N)C2)nc1Nc1cccc(-c2ccccc2)c1 [Compound 12, (S)-4-([1,1′-Biphenyl]-3-ylamino)-2-(3-aminopiperidin-1-yl)pyrimidine-5-carboxamide Hydrochloride] | 5.67 0C | 1.64 0C | 2.35 0C | 8.03 0C | 4.98 0C | 0.32 0C | 12.19 0C |  |  |  |  |  |  |  | 
NCCNc1ncc(C(N)=O)c(Nc2cccc(C(F)(F)F)c2)n1 [Compound 1, 2-((2-Aminoethyl)amino)-4-((3-(trifluoromethyl)phenyl)amino)pyrimidine-5-carboxamide hydrochloride, reference compound] | 4.62 0C | 0.11 0C | 0.21 0C | 4.05 0C | 1.34 0C | 3.4 0C | 4.11 0C | 7.51 0C | 1.33 0C | 1 0C | 2.33 0C | 0.87 0C |  |  | 
CC(C)(C#N)c1cccc(Nc2nc(N3CCC[C@H](N)C3)ncc2C(N)=O)c1 [Compound 13, (S)-2-(3-Aminopiperidin-1-yl)-4-((3-(2-cyanopropan-2-yl)phenyl)amino)pyrimidine-5-carboxamide] | 1.98 0C | 0.32 0C | 0.6 0C | 6.82 0C | 4.38 0C | 0.46 0C | 6.35 0C |  |  |  |  |  |  |  | 
CC(C)(C)c1cccc(Nc2nc(N3CCC[C@H](N)C3)ncc2C(N)=O)c1 [Compound 10, (S)-2-(3-Aminopiperidin-1-yl)-4-((3-(tert-butyl)phenyl)amino)pyrimidine-5-carboxamide Hydrochloride] | 1.24 0C | 0.3 0C | 0.77 0C | 5.43 0C | 3.78 0C | 0.67 0C | 9.24 0C |  |  |  |  |  |  |  | 
CC(C)(C)c1cc(Nc2nc(N3CCC[C@H](N)C3)ncc2C(N)=O)cc(C(C)(C)C)c1 [Compound 14, (S)-2-(3-Aminopiperidin-1-yl)-4-((3,5-di-tert-butylphenyl)amino)pyrimidine-5-carboxamide] | -0.72 0C | 1.34 0C | 0.69 0C | 4.82 0C | 6.39 0C | -0.63 0C | 10.22 0C |  | -0.28 0C |  |  |  | 97 | 0.01 | 
CNC(=O)c1cnc(NCCN)nc1Nc1cccc(C(F)(F)F)c1 [Compound 2, 2-((2-Aminoethyl)amino)-N-methyl-4-((3-(trifluoromethyl)phenyl)amino)pyrimidine-5-carboxamide, reference compound] |  |  | -0.22 0C |  |  |  | 0.15 0C |  |  |  |  |  |  |  | 
NC(=O)c1cnc(N2CCC[C@H](N)C2)nc1Nc1cccc(C(F)(F)F)c1 [Compound 8, (S)-2-(3-Aminopiperidin-1-yl)-4-((3-(trifluoromethyl)phenyl)amino)pyrimidine-5-carboxamide Hydrochloride] | 4.73 0C |  | 1.08 0C |  |  |  | 9.55 0C |  |  |  |  |  | 84 | 0.12 | 11
CN(C)CCN(C)c1ncc(C(N)=O)c(Nc2cccc(C(F)(F)F)c2)n1 [Compound 5, 2-((2-(Dimethylamino)ethyl)(methyl)amino)-4-((3-(trifluoromethyl)phenyl)amino)pyrimidine-5-carboxamide Hydrochloride] |  |  | 0.29 0C |  |  |  | 2.78 0C |  |  |  |  |  |  |  | 
CN(CCN)c1ncc(C(N)=O)c(Nc2cccc(C(F)(F)F)c2)n1 [Compound 3, 2-((2-Aminoethyl)(methyl)amino)-4-((3-(trifluoromethyl)phenyl)amino)pyrimidine-5-carboxamide Hydrochloride] | 2.1 0C |  | 0.49 0C |  |  |  | 4.91 0C |  | 1.75 0C | 4.42 0C | 3.2 0C | 1.26 0C |  |  | 
CS(=O)(=O)c1cccc(Nc2nc(N3CCC[C@H](N)C3)ncc2C(N)=O)c1 [Compound 11, (S)-2-(3-Aminopiperidin-1-yl)-4-((3-(methylsulfonyl)phenyl)amino)pyrimidine-5-carboxamide] | 3.75 0C | -0.09 0C | 0.53 0C | 6.85 0C | 4.49 0C | 1.4 0C | 7.26 0C |  |  |  |  |  |  |  | 
NC(=O)c1cnc(N2CCC[C@H](N)C2)nc1Nc1cc(C(F)(F)F)cc(C(F)(F)F)c1 [Compound 9] | 3.17 0C | 1.22 0C | 1.09 0C | 8.72 0C | 7.06 0C | -0.47 0C | 16.18 0C |  |  |  |  |  |  |  | 
CNCCN(C)c1ncc(C(N)=O)c(Nc2cccc(C(F)(F)F)c2)n1 [Compound 4, 2-(Methyl(2-(methylamino)ethyl)amino)-4-((3-(trifluoromethyl)phenyl)amino)pyrimidine-5-carboxamide Hydrochloride] |  |  | 0.1 0C |  |  |  | 1.13 0C |  |  |  |  |  |  |  | 
CC(C)c1cc(Nc2nc(N3CCC[C@H](N)C3)ncc2C(N)=O)cc(C(C)C)c1 [Compound 15, (S)-2-(3-Aminopiperidin-1-yl)-4-((3,5-diisopropylphenyl)amino)pyrimidine-5-carboxamide] | 4.76 0C | 1.96 0C | 2.19 0C | 8.08 0C | 6.46 0C | -0.2 0C | 10.33 0C |  |  |  |  |  |  |  | 
NC(=O)c1cnc(N2CCCC(N)C2)nc1Nc1cccc(C(F)(F)F)c1 (racemic) [Compound 6, (rac)-2-(3-Aminopiperidin-1-yl)-4-((3-(trifluoromethyl)phenyl)amino)pyrimidine-5-carboxamide Hydrochloride] |  |  | 1.21 0C |  |  |  | 8.82 0C |  |  |  |  |  |  |  | 
